From patent publication US11951089B2, “Pharmaceutical composition for preventing or treating wound or scar, comprising benzbromarone” (INNOVO THERAPEUTICS INC., priority 2020, dated 2024) come the findings set out here.

The structures appear in SMILES notation. Bounds are passed on as bounds.

The target of one test is T1, HSP47 (Homo sapiens, UniProt P50454).
T1 construct: purchased GenScript US
Nature of the test: Evaluation of HSP47 activity (inhibition of collagen fibril formation, OD 340 nm). Format: biochemical. The following applies: collagen fibril formation in PBS pH 7.4, 37° C.; HSP47 9.45 μg/ml; Prism. The procedure:
Fibrils were formed by adding 180 ul of phosphate-buffered saline (PBS, pH 7.4) solution to 20 ul of collagen dissolved in acidic solution (collagen solution, UK), which was measured at a wavelength of 340 nm. HSP47 (GenScript US) was added at a concentration of 9.45 μg/ml to evaluate HSP47 activity as the degree to which it inhibits fibril formation. Test compound was added with concentrations of 100 μM to 1 μM and the inhibitory activity of HSP47 was calculated as a percentage.
The OD measured when collagen was placed in PBS buffer (pH 7.4) to form fibrils at 37° C. was taken as 100%, and the OD measured when HSP47 and collagen were placed together to form fibrils was taken as 0%. The percentage of inhibition of HSP47 by the test compound at each concentration was measured. IC50 values were calculated using Prism software (Graphpad, USA).

Test [1] relates to Hepatic stellate cell LX-2. Nature of the test: Sirius red assay, TGF-β1-induced fibrosis in hepatic stellate cell LX-2. Format: cell-based. To be noted: LX-2, 10 ng/ml TGF-β1 co-treatment; compared to the TGF-β1 treatment group; BBR 30 μM, 10 μM (FIG. 3). As to the method: (§1) Hepatic stellate LX-2 (Elabscience CH), lung epithelial A549 (ATCC US), liver stellate T6 (Elabscience, CH), or skin KEL FIB (ATCC, US) cells were cultured in 24-well tissue culture plates for 18 hours, followed by TGF-beta 10 ng/ml treatment, and then incubated with test compounds for 24 hours. Cells were washed with PBS, fixed with Bouin's solution, and washed twice with distilled water. The fixed cells were stained with Sirius red for 2 hours to observe cellular morphological changes, and then washed with 0.01 N HCl solution. Collagen-bound Sirius red was extracted with 0.1 N NaOH solution, which was then quantified at a wavelength of 570 nm. The inhibitory efficacy of each compound on collagen production was shown as a percentage.
Hepatic stellate cell LX-2 was treated with 10 ng/ml TGF-β1 (Gibco, US) to induce fibrosis, and the benzbromarone (BBR) treatment group was treated with TGF-β1 and benzbromarone (BBR) simultaneously. The extent of fibrosis inhibition was observed by fixing the cells and staining them with Sirius Red, a collagen-specific stain, to observe morphological changes (FIG. 2A, 2B), and quantified by extracting Sirius Red with 0.1 N NaOH solution (FIG. 3).

The next test concerns Hepatic stellate cell T6. The test is described as follows: Sirius red assay, TGF-β1-induced fibrosis in hepatic stellate cell T6. The format is cell-based. The following applies: T6, 10 ng/ml TGF-β1 co-treatment, 30 μM; compared to the TGF-β1 treatment group. As to the method:
as §1
Hepatic stellate cell T6 was treated with 10 ng/ml TGF-β1 to induce fibrosis, and the test compound was treated simultaneously. The extent of fibrosis inhibition was observed by fixing the cells and staining them with Sirius Red, a collagen-specific stain, to observe morphological changes (FIG. 4A, 4B), and quantified by extracting Sirius Red with 0.1 N NaOH solution (FIG. 5).

For test [2], the system named is Lung epithelial cells A549. The test is described as follows: Sirius red assay, TGF-β1-induced fibrosis in lung epithelial cells A549. Format: cell-based. As to the method:
as §1
Lung epithelial cells A549 were treated with 10 ng/ml TGF-β1 to induce fibrosis, and the test compound was treated simultaneously. The extent of fibrosis inhibition was observed by fixing the cells and staining with Sirius Red, a collagen-specific stain, to observe morphological changes (FIG. 6A, 6B), and quantified by extracting Sirius Red with 0.1 N NaOH solution (FIG. 7).

The test system of test [3] is KEL FIB cells isolated from keloid patients. Nature of the test: Sirius red assay, TGF-β1-induced fibrosis in dermal fibroblast KEL FIB cells. Format: cell-based. As to the method:
as §1
KEL FIB cells (ATCC, USA) isolated from keloid patients were treated with 10 ng/ml TGF-β1 to induce fibrosis, and the test compound was treated simultaneously. The extent of fibrosis inhibition was observed by fixing the cells and staining them with Sirius Red, a collagen-specific stain, to observe morphological changes (FIG. 8A, 8B), and quantified by extracting Sirius Red with 0.1 N NaOH solution (FIG. 9).

In test [4] the test system is carbon tetrachloride-induced liver fibrosis. The test is described as follows: Carbon tetrachloride-induced liver fibrosis model in mice. To be noted: CCl4 4 weeks, oral, twice a day (30 mg/kg BID). Format: in vivo. The procedure:
CCl4 was administered intraperitoneally at 50 uL (1:1 corn oil) per mouse three times a week for 4 weeks, and the test compound was suspended in 0.5% methylcellulose and administered orally at a dose of 5 ml/kg daily. As a positive control, obeticholic acid (Medkoo, US) was administered at a dose of 30 mg/kg. Body weight was measured once a week during the study period. 28 days after CCl4 administration, […] were inhalationally anesthetized with ether, and once anesthesia was confirmed, they were laparotomized and blood was drawn using a syringe from the posterior vena cava, and then the abdominal aorta and posterior vena cava were cut to exsanguinate/death. Blood was separated into serum and blood biochemical tests were performed. The liver was removed and weighed, the right lobe was fixed in 10% neutral buffered formalin solution, and the left lobe was divided in half and quick-frozen in liquid nitrogen. The quick-frozen samples were stored in an ultra-low temperature freezer set below −70° C. and used for 4-Hydroxyproline assay. The fixed tissues were subjected to the usual tissue processing procedures such as cutting, dehydration, paraffin embedding, and sectioning to prepare specimens for histopathological examination. Hematoxylin & Eosin (H&E) and Picrosirius red staining were performed, and histopathological changes were observed using optical microscope (Olympus BX53, Japan), and the area of fibrosis was analyzed. To determine the extent of carbon tetrachloride-induced liver tissue damage and liver function, plasma alanine aminotransferase (ALT) and bilirubin levels were analyzed in the plasma collected from autopsy using a blood biochemistry analyzer (7180 Hitachi, Japan). […] As liver fibrosis progresses, collagen is deposited in liver tissue. The content of 4-hydroxyproline in collagen in a carbon tetrachloride-induced injured liver tissue was analyzed to determine the extent of fibrosis.

Test [5] deals with burn-induced skin scarring. Nature of the test: Inhibition of burn-induced skin scarring in minipigs. The format is in vivo, Yucatan minipigs. The following applies: 1% ointment once daily topical, day 45 of burn induction. As to the method: Yucatan minipigs that had been fasted for at least 8 hours were anesthetized using xylazine hydrochloride, midazolam, and propofol. After removing the hair on the trunk and back, the test area was disinfected with povidone iodine solution. Burns were induced by contacting the test area with a 400-gram stainless steel weight for 40 seconds. Burns were applied 2 cm from the spine and 4 cm apart between burn sites. The burn area should not exceed 3.5% of the total animal area. 15 days after burning, the scab was removed and the test compound was applied to the wounds once daily. At 45 days after burn induction, autopsy was performed, and the wounds were fixed in formalin solution and H&E staining was performed to measure the thickness of the dermal layer. The test compound was suspended in propylene glycol (Yakuri pure chemicals, Japan) and made into a homogeneous suspension using an ultrasonic cleaner, which was then diluted in lanolin (Merck, USA) and petroleum jelly (Merck, USA) under 60° C. water bath to prepare an ointment. Each component of the prepared ointment is 1% (w/w) of the test compound, 20% (w/w) of propylene glycol, 15% (w/w) of lanolin, and 64% (w/w) of vaseline. […] The reduction of scar size and wound in the BBR treatment group (BBR 1%) was clearly shown numerically. […] Also, the numerical measurement of the hypertrophy of the dermis layer was shown in FIG. 15B, and the hypertrophy of the dermis layer was the lowest in the BBR treatment group (BBR 1%).

Where [6] appears, read: 10 ng/ml TGF-β1, Sirius Red quantified.

T1 sequence (P50454 19-418, species assumed): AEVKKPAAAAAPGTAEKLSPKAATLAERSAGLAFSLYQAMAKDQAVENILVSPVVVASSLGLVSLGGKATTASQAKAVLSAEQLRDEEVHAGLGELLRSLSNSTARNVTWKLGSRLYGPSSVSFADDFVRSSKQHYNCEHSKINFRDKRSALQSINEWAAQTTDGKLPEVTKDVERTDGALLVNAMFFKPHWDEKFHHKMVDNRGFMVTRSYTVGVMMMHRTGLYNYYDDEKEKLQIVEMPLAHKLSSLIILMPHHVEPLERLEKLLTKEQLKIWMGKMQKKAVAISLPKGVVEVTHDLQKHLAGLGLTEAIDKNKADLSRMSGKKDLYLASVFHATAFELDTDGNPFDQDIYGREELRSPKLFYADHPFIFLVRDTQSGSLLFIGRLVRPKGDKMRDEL

On to `CCc1oc2ccccc2c1C(=O)c1cc(Br)c(O)c(Br)c1` [benzbromarone, (3,5-dibromo-4-hydroxyphenyl)-(2-ethyl-1-benzofuran-3-yl)methanone], for which 133 µM corresponded to half-maximal inhibition on HSP47 (IC50). In addition, the “degree of fibrosis (Sirius Red, quantified)” value in test [1] is recorded as “significantly reduced”. For the same compound, the “degree of fibrosis (Sirius Red, quantified)” value with Hepatic stellate cell T6 was “significantly reduced”. In test [2] (A549, 10 ng/ml TGF-β1 co-treatment, 30 μM), the “fibrosis by Sirius Red staining (morphology)” value is on record as “fibrosis was reduced”. The IC50 (in general, the concentration needed to halve the response being measured) in test [2] (Homo sapiens, A549, 10 ng/ml TGF-β1, Sirius Red OD 570 nm, read-out: IC50 of fibrosis inhibition) was determined as 4.25 µM. In test [3] (setting [6]), the “concentration at which the fibrosis inhibitory effect began to appear” value came to 3 µM and the “concentration from which fibrosis was significantly inhibited” value is no less than 10 µM. Further, in test [3] (10 ng/ml TGF-β1 co-treatment, 30 μM), the “fibrosis by Sirius Red staining (morphology)” value is “fibrosis was reduced”. Moreover, in test [4], the “content of 4-hydroxyproline in liver tissue” value is “statistically significantly reduced”, the “plasma alanine aminotransferase (ALT)” value is “Statistically significant decreases” and the plasma bilirubin entry is on record as “Statistically significant decreases”. In addition, in test [4] (versus obeticholic acid 30 mg/kg), the “fibrosis area of liver tissue” value is given as “comparable result with fibrosis inhibition as the obeticholic acid (OCA) treatment group”. In test [5], the “scar extent compared to positive control triamcinolone 0.1%” value is listed as “reduced”; the “scar size and wound extent compared to control group (Vehicle)” value was “significantly reduced”. Besides, the “hypertrophy of the dermis layer (scar tissue thickness, H&E)” value in test [5] (versus other groups) is “lowest”.
